The source of these data is patent US20240373849A1, “INSECT NEUROPEPTIDE ANALOGUES” (THE UNIVERSITY COURT OF THE UNIVERSITY OF GLASGOW, priority 2020, published 2024).

Series [1] has as its system M. persicae. As to the kind of experiment: Feeding of aphids with peptides in artificial diet (Example 1). It is filed as in vivo, Myzus persicae. As to the method:
A standard artificial diet for M. persicae was produced as described in Van Emden (2009) and provided the basal diet to which peptides were added for screening purposes. Peptides were diluted individually in the artificial diet to a pre-determined concentration.
Feeding apparatus were constructed using a set-up developed by Sadeghi et al (2009). For this, a piece of Parafilm was stretched over a Plexiglas ring (h=4 cm, Ø=3 cm) and 100 μl of the artificial diet containing the desired neuropeptide analogue was pipette onto the Parafilm membrane. A second piece of Parafilm, stretched to 4 times the original thickness, was stretched over the original layer, sandwiching the artificial diet between two layers of Parafilm. A strip of Parafilm was wrapped around the circumference of the Plexiglas ring, sealing in the diet. A plastic ring (h=1.2 cm, Ø=3.4 cm) was subsequently placed over the Parafilm layer, creating a walled chamber in which to house test aphids in contact with the Parafilm layer containing the artificial diet. Finally, a small Petri dish (h=1 cm, Ø=3.6 cm), modified for ventilation with net cloth, was placed on top of each feeding apparatus to prevent aphid escape.
To obtain aphids for use in experiments, reproducing anholocyclic adults were placed on individual excised leaves of Chinese cabbage at densities of 5 adults per leaf and allowed to reproduce for 24 h. The stem of each excised leaf was held within a 0.5 mL Eppendorf tube containing water via a punctured hole in the Eppendorf lid, and placed individually within a microcage (L=4 cm, Ø=9.5 cm). Following 24h, adults were removed and resultant first instar nymphs (<1 day old and synchronised in age to within 24h) retained. Nymphs were allowed to develop on the Chinese cabbage for 5 days. On day 5, (3rd instar) nymphs were transferred onto the artificial diet containing a neuropeptide analogue at densities of 1 per feeding chamber and monitored daily until death. Aphids were transferred to fresh artificial diet (containing neuropeptide analogue or water control) every 5 days.
The water control group was used to determine baseline lethality. Results for neuropeptide analogues were calculated as % lethality in the remaining population after adjustment for the baseline.

Series [2] has as its system M. persicae. The series can be described thus: Feeding of aphids with peptides in artificial diet (Example 2; peptide screening, honeydew). To be noted: for mean lethality / lethality observed in one sample of 30 insects: M. persicae feeding, 10^−5 M, 120 hours; for lethality observed in one sample of 30 insects: single sample. It is filed as in vivo, Myzus persicae. From the text: (§1) First to Fourth generations of peptides were produced with varying structures and tested for CAPA receptor agonist activity, and screened for lethality in vivo against D. suzukii and M. persicae as per methods in example 2 and example 8. The top performing peptides were selected and gave rise to the list of CAPA1 and CAPA2 peptides provided above in Table 1 which were then further tested in the following applied examples.
The aphid feeding protocol was devised according to Sadeghi et al (2009) as explained in example 1. Feeding discs were designed and manufactured as above. A standard sucrose-based artificial diet for M. persicae (30 aphids per chamber, 3 chambers per experiment unless otherwise stated) was produced as described in example 1 (Sadeghi et al, J. Insect Science, 2009) and provided the basal diet to which peptides were added for screening purposes. Peptides were diluted individually in the artificial diet to 10^−5 M. Lethality was scored after up to 120 hours (IRAC guidelines for aphid testing).
Membrane discs were also included to collect ‘honeydew’ secreted by feeding aphids and stained with ninhydrin to observe feeding patterns.
Comparison of purple stain in controls to treated aphids, show there is very little colour on many membranes where peptides were added.
Capa peptides cause mortality in M. persicae via feeding: At 120 hours, AH383 and AH387 peptides induce ˜60% mean (and median) lethality. Although mean lethality is lower with AH270/PEGAH270 (40%), 100% lethality is observed in one sample of 30 insects (AH270); and 90% in at least one sample of each of AH383, AH387 and PEGAH270 (FIG. 3). Note that PEGAH270 is a pegylated form of peptide AH270.

Series [3] has as its system Myzus persicae aphids. As to the kind of experiment: Topical application by spraying, Potter Spray Tower (Example 3). To be noted: 48 hours post spray. The class given is in vivo. The protocol:
Aphids were exposed to test peptides in the absence of additional external stress conditions.
Brassica rapa (Chinese cabbage; Wong Bok) were infested with 30 adult Myzus persicae aphids per plant. Aphids were left at least 2 hours to settle and begin feeding from the host plant.
Potter Spray Tower (Burkard Manufacturing) was ‘primed’ by spraying 1000 μl of liquid coating the inside of the tower. Vehicle spray only (Croda ATPlus UEP 100 LQ-(CQ) 0.1% v/v) was used as a control.
Spray volumes for all solutions were 3000 μl. […] After spraying was completed the plant was allowed to rest on the spray platform for 30 seconds to allow settling of the sprayed chemical.
Post peptide application, each condition was placed into its own individual Bugdorm (Watkins and Doncaster, 44545), to prevent repulsed or displaced aphids moving from one condition to another. Numbers of alive and dead aphids on the plant were counted 48 hours post spray, and the presence of any fresh nymphs noted. Plants were watered prior to spraying but not afterwards to eliminate the possibility of drowning any aphids present or washing off the sprayed liquid.
The vehicle control group was used to determine baseline lethality. Results for neuropeptide analogues were calculated as % lethality in the remaining population after adjustment for the baseline.

The subject of series [4] is Drosophila suzukii larvae. As to the kind of experiment: Drosophila suzukii larval feeding (Example 8; peptide screening). To be noted: for Feeding D. suzukii, % lethality in population after adjustment for baseline: 10^−5 M, 48 hr exposure. Also noted: key to D. suzukii (Sig Diff Grp): A indicates a significant difference in survival compared with control (blank).; B indicates a significant difference in survival compared with scrambled capa1.; C indicates a significant difference in survival compared with scrambled capa2. It is filed as in vivo. The protocol: as §1
Peptides were tested at concentrations ranging from [10^−4 M] to [10^−7 M] in a final volume of 200 μl of 0.8% agarose containing 0.09% m-Cresol purple pH marker dye (Sigma) and 5% sucrose (Sigma).
Agarose was melted in dH2O, before addition of sucrose and dye. The agarose/dye solution was then allowed to cool to 60° C. 96 well plates (flat-bottomed 3596 TC-plates; Corning) containing 20 μl volumes of neuropeptide per well were prepared, and 180 μl agarose/dye solution dispensed into each well via a Distriman repetitive micro-pipettor (Gilson). Controls contained 20 μl dH2O as a ‘sham’ treatment with 180 μl of the 0.8% agarose/dye solution. Plates were agitated at 800 rpm, to ensure mixing, at 60° C. (Eppendorf Thermomixer C). Plates were then allowed to cool, and agarose/dye solution solidify, prior to use.
Each peptide was assayed with a minimum of 7 to maximum 9 late L2/early L3 Spotted wing Drosophila, Drosophila suzukii, (feeding) larvae per well, minimum n=8 wells per peptide concentration and a minimum n=12 control wells per plate. The selected larvae were first washed 2× in ice cold Drosophila Schneider's liquid medium (ThermoFisher) before insertion into wells to remove extraneous food. After complete insertion of all larvae the plates were covered with breathable sealing membrane for multi-well plates (Sigma).
Larvae were assayed for lethality after 48 hr exposure at 21° C. and findings recorded. During examination the assay plate was kept on ice, to reduce larval locomotor activity (wandering), and larvae in each well were examined using a binocular stereomicroscope (Zeiss).
The water control group was used to determine baseline lethality. Results for neuropeptide analogues were calculated as % lethality in the remaining population after adjustment for the baseline. Results are shown in Tables 7 and 8 below, and in FIG. 1.

Series [5] has as its system D. suzukii larvae. The series can be described thus: Drosophila suzukii larval feeding (Example 9; dose response). It is filed as in vivo. To be noted: for % Lethality ± SEM: Table 6, 10^−5 M, 48 hr and/or 72 h exposure (FIG. 7: AH270/PEGAH270 120 h). The protocol: Dose response experiments were carried out for AH382, AH383, AH188, data shown for AH382 (a), AH383 (b), AH188 (c, 48 hours). Data are mean % lethality ±SEM for concentrations between 10^−4 M and 10^−7 M (a) AH382, (b) AH383 72 hours treatment; and between 10^−5 M and 10^−9 M (AH188, 3c), 48 hours treatment. The LD50 for AH382, AH383 and AH188 is 10^−6 M.
Further larval feeding assays with D. suzukii larvae were conducted as explained above in example 7. A total of 88 peptides were tested against D. suzukii larvae in 96 well plates at 10^−5 M in a final volume of 200 μl of 0.8% agarose containing 0.09% m-Cresol purple pH marker dye (Sigma) and 5% sucrose (Sigma). Controls contained dH2O (18% lethality) or native Capa-2 peptide (38% lethality) as a ‘sham’ treatment. Each peptide was assayed with a minimum of 7 to maximum 9 late L2/early L3 larvae per well, minimum n=8 wells per peptide concentration (minimum 56 larvae) and a minimum n=12 control wells (minimum 84 larvae) per plate. Larvae were assayed for lethality after 48 hr and/or 72 h exposure at 21° C. using a binocular stereomicroscope and findings recorded. Candidate peptides were also tested between 10^-4 and 10^-7 M (dose response curve).
Candidate peptides for D. suzukii with 70%-90% lethality are indicated below, in Table 6.

Series [6] relates to bumblebees (Bombus terrestris). As to the kind of experiment: Bumblebee acute oral toxicity test. The class given is in vivo. The protocol:
Oral toxicity against bumblebees (Bombus terrestris) was determined as previously described:
OECD (2017), Test No. 247: Bumblebee, Acute Oral Toxicity Test, OECD Guidelines for the Testing of Chemicals, Section 2, OECD Publishing, Paris, https://doi.org/10.1787/9789264284128-en.
Example data are provided for peptides, AH56, AH257, AH259 in Tables 4, 5 below. […]
Data were acquired for: feeding behaviour—weight of liquid consumed pre- and post-treatment; lethality (days).
There was no negative impact on feeding behaviour from capa peptides. Acute bumblebee toxicity was also assessed for other peptide candidates including: AH270, PEG270. Overall, capa peptides are bee safe.

Setting [7] is: Table 11, individual bees, peptide 1 × 10 − 5M or Spirotetramat 25 uM, listed as AHPEG270.

Several values for one entry are separate records, joined by “and”; a condition that tells them apart may be missing. Identical values can stand only once. Square brackets hold non-standard residues; d marks the D form. NMeA = CN[C@@H](C)C(=O)O; Aib = CC(C)(N)C(=O)O

As to H-Ahx-L-(Me)V-AFPRV-NH2 [AH283], the “Feeding Aphid, % lethality in population after adjustment for baseline” value (from here on “Feeding Aphid, % lethality in population”) in series [1] (10^−4 M) is 34%; in series [1] (10^−5 M), 26%; in series [1] (10^−5 M, @72 h), 12 (51%; in series [1] (10^−6 M), 27%; in series [1] (10^−7 M) it was 20%. Also, the “M. persicae (% Lethality)” value in series [2] (Peptide screening, Table 5) amounted to 40%. Also, the “Spray Aphid, % lethality in population after adjustment for baseline” value (from here on “Spray Aphid, % lethality in population”) worked out at 30% in series [3] (10^−4 M) and 20% in series [3] (10^−5 M). Besides, the “Feeding D. suzukii, % lethality in population after adjustment for baseline” value (shortened to “Feeding D. suzukii, % lethality”) in series [4] came to 43%. In addition, the “D. suzukii (Mean% Lethality ± SD)” value in series [4] (Peptide screening, Table 5, blank control 20.33) is listed as 42.63%. For the same substance, the “D. suzukii (Sig Diff Grp)” value in series [4] (Peptide screening, Table 5, difference in survival) was “A”.

For “H-ASGLVAFPRV-NH2 [Capa-2, reference compound]”, the lethality in series [5] (control ('sham') treatment, not baseline adjusted) worked out at 38%.

For the substance “H-LY-(Me)A-FARV-NH2 (H-LY[NMeA]FARV-NH2; SMILES CC(C)C[C@H](N)C(=O)N[C@@H](Cc1ccc(O)cc1)C(=O)N(C)[C@@H](C)C(=O)N[C@@H](Cc1ccccc1)C(=O)N[C@@H](C)C(=O)N[C@@H](CCCNC(=N)N)C(=O)N[C@H](C(N)=O)C(C)C) [AH382]”, in series [1] (10^−5 M), the “Feeding Aphid, % lethality in population” value was 12%. Besides, the LD50 in series [5] (72 hours treatment) is listed as 10^−6 M. Also, the “% Lethality ± SEM” value in series [5] is listed as 90 + 4%. Also, the “Spray Aphid, % lethality in population” value in series [3] (10^−4 M) worked out at 49%; in series [3] (10^−5 M), 10%. For the same substance, in series [4], the “Feeding D. suzukii, % lethality” value is 43%.

Take “PEG-Ahx-LV-(Me)A-FPR-(Me)V-NH2 [PEGAH270, a pegylated form of peptide AH270]”: in series [2], the mean lethality stood at 40% and the “lethality observed in one sample of 30 insects” value is 90%. Further, in series [5], the “% Lethality ± SEM” value was 77 ± 4%. For the same substance, in series [6] (Table 11, group mean, n=10), the “Liquid post exposure (weight), Mean” value came out at 0.8814 g and the “liquid consumed per day post exposure, Mean” value came out at 0.2211 g. In addition, in series [6] (setting [7]), the “Liquid post exposure (weight)” value was 1.5744 g and 0.7150 g and 0.4326 g and 0.2731 g and 1.1763 g and 1.8061 g and 0.5676 g and 1.5696 g and 0.6889 g and 0.0102 g; the days alive is 4 days (9×) and 0 (approx 1 hr) days; the “liquid consumed per day post exposure” value is 0.3936 g and 0.1788 g and 0.1082 g and 0.0683 g and 0.2941 g and 0.4515 g and 0.1419 g and 0.3924 g and 0.1722 g and 0.0102 g. Besides, the “safety towards B. terrestris in the bumblebee oral toxicity assay” value in series [6] (in vivo, po) is given as “safe”.

In the case of “H-LY-Aib-FARV-NH2 (H-LY[Aib]FARV-NH2; SMILES CC(C)C[C@H](N)C(=O)N[C@@H](Cc1ccc(O)cc1)C(=O)NC(C)(C)C(=O)N[C@@H](Cc1ccccc1)C(=O)N[C@@H](C)C(=O)N[C@@H](CCCNC(=N)N)C(=O)N[C@H](C(N)=O)C(C)C) [AH387]”, the “Feeding Aphid, % lethality in population” value in series [1] (10^−5 M) worked out at 14%. The “Feeding Aphid, % lethality in population” value in series [1] (10^−5 M, 60 h) is reported as 6 (35%. In addition, in series [2], the mean lethality is on record as about 60% and the “lethality observed in one sample of 30 insects” value is listed as 90%. The “Spray Aphid, % lethality in population” value in series [3] (10^−5 M) turned out to be 12%. Besides, in series [4], the “Feeding D. suzukii, % lethality” value is 62%.
